Measurements taken from patent US20180258404A1, “METHODS OF GENERATING NEPHRONS FROM HUMAN PLURIPOTENT STEM CELLS” (THE BRIGHAM AND WOMEN'S HOSPITAL, INC., priority 2015, published 2018).

Tests used:
[1] = test system: 3D hESC-derived kidney organoids; test: Nephrotoxicity assay in 3D kidney organoids; type: cell-based, human
Experimental: Organoids were then fixed with 4% paraformaldehyde (Electron Microscopy Sciences, #RT15710) for 20 minutes for both whole-mount and frozen section immunohistochemistry.
3D kidney organoids were fixed with 4% paraformaldehyde in PBS for 20 minutes at RT in a 96-well plate, then washed three times in PBS. The organoids were then incubated in blocking buffer (0.3% Triton X-100 and 5% normal donkey serum) for 1 hour at RT, then washed three times in PBS. The organoids were incubated with primary antibodies in antibody dilution buffer (0.3% Triton X-100 and 1% BSA in PBS) overnight at 4° C. The organoids were then washed with PBS three times for 1 hour each, with the third washing performed overnight at 4° C. For immunostaining with biotinylated LTL (Vector Labs, #B-1325), a Streptavidin/Biotin Blocking Kit (Vector Labs, #SP-2002) was used according to the manufacturer's protocol. The organoids were incubated with secondary antibodies in antibody dilution buffer for 1 hour at RT, then washed with PBS three times for 30 minutes each. Nuclei were counterstained with DAPI for more than 30 minutes. […]
Total RNA was purified from cells using the RNAeasy MiniKit (Qiagen). […] Quantitative RT-PCR was performed using the iQ5 Multicolor Real-Time PCR Detection System (Bio-Rad). […] Values were calculated by the delta delta CT method. […]

ARPKD-iPS organoids = test: ARPKD organoid cyst formation in 3D culture; type: cell-based, human; conditions: forskolin treatment, 96-well plates, 24 in 24 organoids
Description: FIG. 26. Autosomal recessive polycystic kidney disease (ARPKD), organoid in 3D culture. This was done in 96-well plates. Cyst formation was 100% (24 in 24 organoids) in ARPKD-iPS with forskolin treatment. PKHD1 mutants were generated with CRISPR. The cystic phenotype appear from very early stage (day 22˜), meaning high-scale drug screening can be done, since media change will be much less frequent.

[2] = test system: hPSC-derived renal vesicles; test: Kidney development analysis (Notch inhibition) in kidney organoids; type: cell-based, human; conditions: DAPT 10 μM from day 14 to 21, 2D and 3D culture
Experimental: FIG. 6. Modeling kidney development and injury in kidney organoids. (a) Schematic for kidney development analysis and nephrotoxicity assay. (b) Representative images of immunohistochemistry in structures derived from hESCs treated with DAPT 10 μM from day 14 to 21. n=4. Notch inhibition suppressed proximal tubule formation. Scale bars: 50 μm. […] Scale bars: 50 μm. […] (d) A low magnification image of gentamicin-treated organoids. Scale bar: 100 μm. CDH1: Cadherin-1 (E-cadherin). PODXL: Podocalyxin-like (Podocalyxin). LTL: lotus tetragonolobus lectin. KIM-1: kidney injury molecule-1. (e) Real-time quantitative PCR of KIM-1 in kidney organoids treated with gentamicin at indicated doses. Data is expressed as mean+/−SEM (n=10). […] Scale bars: 50 μm.
FIG. 12. Kidney development analysis. (a) DAPT was used to suppress Notch signaling from day 14 to 21. (b) CDH1, PODXL and LTL expression on day 21 in cells derived from hESCs in 2D culture. Scale bars: 50 (c) Percentage of LTL+ nephron structures in control and DAPT-treated on day 21. The nephron number was counted as CDH1+ tubules from 10 fields (×20 magnification) of each sample (n=2). CDH1: Cadherin-1 (E-cadherin). PODXL: Podocalyxin-like (Podocalyxin). […]

[3] = test system: human embryonic stem cells (hESCs; H9); test: Induction of late primitive streak from hESCs with CHIR; type: cell-based; conditions: CHIR 8 μM over 4 days
Experimental: hPSCs grown on Geltrex were washed once with PBS (Life Technologies, #10010-049) and dissociated into single cells with Accutase ([…] Technologies, #07920). Cells were then plated at a density of 2-2.4×10^4 (H9) or 1-1.4×10^4 (HDF, 2C) cells/cm^2 onto 24-well tissue culture plates (TPP, #92024) coated with 1% Geltrex in ReproFF2 supplemented with the ROCK inhibitor Y27632 (10 μM) (TOCRIS, #1254) and FGF2 (10 ng/ml). After 72 hours, cells (50% confluent) were briefly washed in PBS and then cultured in basic differentiation medium consisting of Advanced RPMI 1640 (Life Technologies, #12633-020) and 1X L-GlutaMAX (Life Technologies, #35050-061) supplemented with CHIR99021 (8-10 μM) (TOCRIS, #4423) for 4 days to induce late primitive streak cells Noggin (5 ng/ml) was also used for hiPSC differentiation in addition to CHIR (10 μM). To induce posterior intermediate mesoderm, cells were then cultured in Advanced RPMI+1X L-GlutaMAX+activin (10 ng/mL) (R&D, #338-AC-050) for 3 days. For induction of nephron progenitor cells, the media was then changed to Advanced RPMI+1X L-GlutaMAX+FGF9 (10 ng/ml) (R&D, #273-F9-025/CF) for 7 days. CHIR (3 μM) was added to the media from day 9 to 11 of differentiation to induce renal vesicles. On day 14, cells were switched to the basic differentiation medium and cultured for an additional 7 to 14 days (total of 21 to 28 days). […]

NPCs = test: Induction of pre-tubular aggregates and renal vesicles from nephron progenitor cells; type: cell-based, human
Experimental: hPSCs grown on Geltrex were washed once with PBS (Life Technologies, #10010-049) and dissociated into single cells with Accutase ([…] Technologies, #07920). Cells were then plated at a density of 2-2.4×10^4 (H9) or 1-1.4×10^4 (HDF, 2C) cells/cm^2 onto 24-well tissue culture plates (TPP, #92024) coated with 1% Geltrex in ReproFF2 supplemented with the ROCK inhibitor Y27632 (10 μM) (TOCRIS, #1254) and FGF2 (10 ng/ml). After 72 hours, cells (50% confluent) were briefly washed in PBS and then cultured in basic differentiation medium consisting of Advanced RPMI 1640 (Life Technologies, #12633-020) and 1X L-GlutaMAX (Life Technologies, #35050-061) supplemented with CHIR99021 (8-10 μM) (TOCRIS, #4423) for 4 days to induce late primitive streak cells Noggin (5 ng/ml) was also used for hiPSC differentiation in addition to CHIR (10 μM). To induce posterior intermediate mesoderm, cells were then cultured in Advanced RPMI+1X L-GlutaMAX+activin (10 ng/mL) (R&D, #338-AC-050) for 3 days. For induction of nephron progenitor cells, the media was then changed to Advanced RPMI+1X L-GlutaMAX+FGF9 (10 ng/ml) (R&D, #273-F9-025/CF) for 7 days. CHIR (3 μM) was added to the media from day 9 to 11 of differentiation to induce renal vesicles. On day 14, cells were switched to the basic differentiation medium and cultured for an additional 7 to 14 days (total of 21 to 28 days). The medium was replaced every 2 or 3 days. A variety of growth factors and small molecules were tested for differentiation.
hPSCs on day 9 of differentiation, which represents metanephric mesenchyme cells, were dissociated with Accutase and resuspended in the basic differentiation medium supplemented with CHIR (3 μM) and FGF9 (10 ng/mL), and placed in 96-well, round bottom, ultra-low attachment plates (Corning, #7007) at 1×10^5 cells per well. The plates were centrifuged at 1500 rpm for 15 seconds, and the cells then cultured at 37° C., 5% CO2 for 2 days. The medium was then changed to the basic differentiation medium supplemented with FGF9 10 ng/mL and cultured for 3 more days. […]

NPCs in 3D culture = test: Growth factor and small molecule screening in 3D culture (LTL+ tubules); type: cell-based, human; conditions: added in 3D culture from day 10
Experimental: FIG. 10. Spontaneous differentiation of SIX2+ cells into nephrons and growth factor screening in 3D culture. (a) Staining with PAX8 and LHX1 in hESCs on day 10 of the differentiation. hESCs were differentiated with CHIR 8 µM for 4 days, activn 10 ng/ml for 3 days, and FGF9 10 ng/ml for 3 days. […] Scale bar: 50 μm. (b) Brighfield imaging for hESCs on day 10 and 21 of the differentiation. FGF9 was withdrawn on day 10, and cells were cultured in the basic medium by day 21. Scale bars: 50 μm. (c) Brightfield and immunocytochemistry for LTL and NPHS1 in hESCs on day 28 of the differentiation. Scale bar: 50 μm. (d) The protocol for growth factor screening. Cells were replated to 3D culture on day 10, and the listed growth factors and small molecules were tested. (e) The number of LTL+ tubules in the organoids. […] (f) Brightfield imaging of 3D co-culture with an ureteric bud cell sphere. Scale bar: 100 μm. (g) Whole-mountstaining for LTL in the organoids on day 16. Scale bar: 100 μm. (h) Immunohistochemistry of the organoids on day 16. Scale bars: 50 μm. LTL: lotus tetragonolobus lectin. NPHS1: Nephrin.
To test whether the formation of epithelial structures could be facilitated by 3D culture conditions, on day 10, at the time of FGF9 withdrawal, the Inventors replated NPCs in ultra-low-attachment, round-bottom 96-well plates and cultured them for 1 week. NPCs formed 3D spherical aggregates, one per 96-well, in suspension culture.

Description for podocytes: Modeling glomerular diseases. The Inventors used puromycin and adriamycin which is known to induce FSGS (focal-segmental glomerulosclerosis).

Molecule: COc1cccc2c1C(=O)c1c(O)c3c(c(O)c1C2=O)C[C@@](O)(C(=O)CO)C[C@@H]3O[C@H]1C[C@H](N)[C@H](O)[C@H](C)O1 [adriamycin]
- structures of podocytes (podocytes): the structures of podocytes were disrupted

Molecule: COc1ccc(C[C@H](N)C(=O)N[C@H]2[C@@H](O)[C@H](n3cnc4c(N(C)C)ncnc43)O[C@@H]2CO)cc1 [puromycin]
- structures of podocytes (podocytes): the structures of podocytes were disrupted

Molecule: gentamicin
- KIM-1 expression by immunostaining (whole mount and frozen sections) ([1]; gentamicin 5 mg/mL for 48 hours after day 21): clear KIM-1 expression at the luminal surface of LTL+tubules but not in E-cadherin+ tubules
- KIM-1 by real-time PCR ([1]; gentamicin 5×10^−4, 5×10^−2, or 5 mg/mL for 48 hours): KIM-1 upregulation by gentamicin in a dose-dependent manner

Molecule: C=C[C@@]1(C)CC(=O)[C@]2(O)[C@@]3(C)[C@@H](O)CCC(C)(C)[C@@H]3[C@H](O)[C@H](OC(C)=O)[C@@]2(C)O1 [forskolin]
- cyst formation (ARPKD-iPS organoids): 100%

Molecule: C[C@H](NC(=O)Cc1cc(F)cc(F)c1)C(=O)N[C@H](C(=O)OC(C)(C)C)c1ccccc1 [DAPT]
- proximal tubule formation [2]: marked suppression of proximal tubule formation

Molecule: Cc1c[nH]c(-c2cnc(NCCNc3ccc(C#N)cn3)nc2-c2ccc(Cl)cc2Cl)n1 [CHIR, CHIR99021]
- induction of T+TBX6+ primitive streak cells [3]: robustly induced and maintained a population of T+TBX6+ primitive streak cells
- size of the organoids (NPCs; 3D culture from day 9, studied on day 14, versus basic medium (ARPMI)): increased the size of the organoids
- number of cells that downregulated SIX2 and co-expressed PAX8 and LHX1 (NPCs; CHIR 3 μM for 2 days from day 9 with FGF9 days 7-14, 2D culture): markedly increased
- PAX8+LHX1+ differentiated cells by flow cytometry (NPCs; CHIR 3 μM for 2 days from day 9 with FGF9 days 7-14, 2D culture, day 14): ~75.9%
- number of LTL+ tubules in the organoids (NPCs in 3D culture): did not significantly increase the number of LTL+ tubules
